Measured values from patent publication US7618643B2, “Growth factor delivery system for the healing of wounds and the prevention of inflammation and disease” (DirectContact LLC, priority 2002, dated 2009).

Assays:
[1] = test system: rabbit corneal epithelial cells; experiment: in vitro wound closure, epithelial cell sheets contacted with contact lenses; type: cell-based; details: for healing: lens soaked in 10 ng/μL EGF
Procedure: (§1) Ocular cells were placed into a sterile plastic dish. This dish contained a 5-mm disk. The purpose of the disk was to prevent cells from growing in the covered area. When the disk was removed, a 5-mm “wound” or “hole” was present.
(§2) Contact lenses were then added to these cell sheets with the wounds. The lenses were left in contact with the cell sheets for a minimum of 30 minutes. Minimal medium was used to maintain the cell cultures. Cells were incubated at 35° C.±2° C. in 5% CO2. […] The contact lenses used were polymacon B, vifilcon A, and lidofilcon A hydrogel polymers.
(§3) The cell sheets were then viewed over time, and the diameter of the hole was measured.
(§4) The results are expressed in terms of closure of the in vitro wound over time.
Epithelial Cells and Tissue. Epithelial (rabbit corneal epithelial cells) cells were seeded on a dish and contacted with control and EGF-containing contact lenses. […] At 72 hours, there was a 43% difference in the closure rate between the EGF-treated epithelial tissue and the controls. The hydrogel material that was used was vifilcon A, an ionic polymer with a water content of 55%.
(§5) Closure rates were calculated by direct measurement of the diameter of the wound. Measurements were taken daily.

[2] = test system: recurring epithelial defect; experiment: human testing of medicated lens; type: in vivo; details: polymacon B lens soaked in 400 ppb EGF for 24 hours; one human patient; one administration
Procedure: This lens was placed in a human patient suffering from a recurring epithelial defect that was not responsive to traditional medical treatments. […] Desirably treatment lasts for at least one hour. This type of injury is normally treated by the repeated introduction of eye drops, sometimes as often as every 4-5 minutes. A contact lens of the present invention, however, was able to produce a positive result with only one administration.

[3] = test system: New Zealand white rabbits, eyes abraded with a needle; experiment: rabbit model, eyes abraded with a needle, medicated contact lens in right eye; type: in vivo
Procedure: New Zealand white rabbits were anesthetized, and then both eyes were abraded with a needle. A control contact lens was placed in the left eye, and a medicated contact lens was placed in the right eye of each rabbit for up to 4 hours prior to euthanasia. Control contact lenses (etafilcon A, an ionic lens with 58% water content) were washed with phosphate-buffered saline (PBS) prior to insertion. […] Rabbits were visually scored on a 0-4 scale (0 being the best and 4 being the worst) for corneal edema (which is a measure of wound healing), inflammation, and exudate production.

[4] = test system: bovine corneal endothelial cells; experiment: in vitro wound closure, endothelial cell sheets contacted with contact lenses; type: cell-based
Procedure: as §1, §2, §3, §4, §5
Endothelial Cells and Tissue.

[5] = vifilcon A lens soaked in 10 ng/μL EGF, 48 hours
[6] = vifilcon A lens soaked in 10 ng/μL EGF, 72 hours
[7] = polymacon B lens soaked in 10 ng/μL EGF, 72 hours
[8] = contact lens, 400 ppb HGH soak, right eye

epidermal growth factor [EGF]
healing ([1]; 48 hours): 14% | healing ([1]; 72 hours): 25% | closure rate difference between controls and EGF treated ([1]; vifilcon A lens soaked in 5.0 ng/μL EGF, 48 hours): 21% | difference in the closure rate ([1]; vifilcon A lens soaked in 5.0 ng/μL EGF, 72 hours): 21% | difference in the closure rate between EGF-treated and non-EGF treated cells [1, 5]: 25% | difference in the closure rate between EGF-treated and controls [1, 6]: 43% | difference in the healing rates compared to a wound not contacted with any lens ([1]; vifilcon A lens with EGF, 48 hours): 31% | clinical efficacy (wound healing) [2]: Clinical efficacy (i.e., wound healing) was observed | wound healing compared to control eyes ([3]; etafilcon A lenses soaked in 400 ppb EGF, first two hours after treatment): healed wounds at an accelerated rate | toxicity in rabbits ([3]; etafilcon A lenses soaked in 400 ppb, 4 ppm or 10 ppm EGF): No toxicity was observed | increase in the healing rate (wound closure rate) compared to controls ([4]; lidofilcon A lens soaked in 10 ng/μL EGF, 48 hours): 54% | difference in healing rate compared to controls ([4]; lidofilcon A lens soaked in 10 ng/μL EGF, 72 hours): 44% | difference in closure between treated and untreated groups [4, 7]: 62% | wound closed [4, 7]: 80% | difference in closure rate between EGF treated group and controls ([4]; vifilcon A lens soaked in 5 ng/μL EGF, 48 hours): 31% | tissue healed ([4]; vifilcon A lens soaked in 5 ng/μL EGF, 72 hours): 53% | difference in healing rates compared to a control [4, 5]: 73% | tissue healed [4, 6]: completely healed

human growth hormone [HGH]
toxicity to the ocular tissue ([3]; contact lens, 400 ppb HGH soak): no toxicity was observed | inflammation compared to control eyes [3, 8]: reduction in inflammation | wound healing compared to control eyes [3, 8]: increased wound healing
